Earlier results on 1 compound are cited in US20250032638A1, “Novel Cancer Treatments with TLR7/8 Agonists” (Ascendis Pharma Oncology Division A/S, priority 2021, published 2025).

For this data set the following is noted: resiquimod administered orally; systemic toxicity at higher doses (Journal of Hepatology 47 (2007) 174-182).

As for `CCOCc1nc2c(N)nc3ccccc3c2n1CC(C)(C)O` [resiquimod], the “systemic concentration that was well tolerated” value is on record as “about 4 ng/mL”.
